Where a name gives a salt, the structure may show the parent alone.
Legend:
[1] = biological target: T1, acyl-CoA: cholesterol acyltransferase (ACAT) (Rattus norvegicus, UniProt Q7TQM4); assay: In vitro inhibition of acylation of cholesterol by oleic acid (LAI), rat liver microsomes; assay type: biochemical; conditions: radiolabeled oleic acid
T1 construct: tissue preparation containing rat liver microsomes; from tissue; host or cells: rat liver microsomes
T1 sequence (Q7TQM4 1-524): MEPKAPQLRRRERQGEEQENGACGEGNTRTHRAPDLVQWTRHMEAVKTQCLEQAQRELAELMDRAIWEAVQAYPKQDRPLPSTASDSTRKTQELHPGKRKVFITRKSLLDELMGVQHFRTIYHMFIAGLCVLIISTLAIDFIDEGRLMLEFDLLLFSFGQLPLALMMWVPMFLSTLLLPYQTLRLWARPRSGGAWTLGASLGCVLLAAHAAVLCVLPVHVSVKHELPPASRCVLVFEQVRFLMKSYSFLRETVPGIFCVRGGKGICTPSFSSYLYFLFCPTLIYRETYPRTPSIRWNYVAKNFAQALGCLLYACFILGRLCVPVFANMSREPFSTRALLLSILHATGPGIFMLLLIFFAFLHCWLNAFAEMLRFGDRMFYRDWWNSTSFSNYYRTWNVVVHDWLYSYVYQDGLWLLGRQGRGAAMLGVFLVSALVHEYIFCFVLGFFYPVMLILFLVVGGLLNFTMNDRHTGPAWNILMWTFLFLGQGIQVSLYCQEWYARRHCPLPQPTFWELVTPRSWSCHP
Procedure: The ability of representative compounds of the present invention to inhibit ACAT was measured using an in vitro test more fully described in Field F J, Salone R G, Biochemica et Biophysica 1982; 712:557-570. The test assesses the ability of a test compound to inhibit the acylation of cholesterol by oleic acid by measuring the amount of radiolabeled cholesterol oleate formed from radiolabeled oleic acid in a tissue preparation containing rat liver microsomes.

Plasma TC = assay: in vivo screen designated APCC (high fat, high cholesterol diet, plasma cholesterol); parameters: species or system male Sprague-Dawley rats; conditions: rats, PCC diet with 0.5% cholic acid overnight, vehicle CMC/Tween; for change in vivo at 10 mg/kg / APCC % Change in Plasma TC: dose 10 mg/kg
Description: In one in vivo screen designated APCC, male Sprague-Dawley rats (200 to 225 g) were randomly divided into treatment groups and dosed at 4 PM with either vehicle (CMC/Tween) or suspensions of compounds in vehicle. The normal chow diet was then replaced with a high fat, high cholesterol diet (designated PCC) containing 0.5% cholic acid. The rats consumed this diet ad libitum during the night and were sacrificed at 8 AM to obtain blood samples for cholesterol analysis using standard procedures. Statistical differences between mean cholesterol values for the same vehicle were determined using analysis of variance followed by Fisher's least significant test.

Structure (SMILES) | IC50 [1] [µM] | change in vivo at 1 mg/kg (Plasma TC; Rattus norvegicus, dose 1 mg/kg) [%] | change in vivo at 10 mg/kg (Plasma TC; Rattus norvegicus) [%] | change in vivo at 30 mg/kg (Plasma TC; Rattus norvegicus) [%] | APCC % Change in Plasma TC (Plasma TC) [%]
CC(C)c1cc(C(C)C)c(CC(=O)NS(=O)(=O)Oc2c(C(C)C)cc(NC(=O)[C@H](CCCCNC(=O)OC(C)(C)C)NC(=O)OC(C)(C)C)cc2C(C)C)c(C(C)C)c1 [Example 1, (S)-[5-tert-Butoxycarbonylamino-5-(3,5-diisopropyl-4-{[(2,4,6-triisopropyl-phenyl)-acetyl]-sulfamoyloxy}-phenylcarbanoyl)-pentyl]-carbamic acid tert-butyl ester] | 23 | 7 | – | – | –
CC(C)c1cc(C(C)C)c(CC(=O)NS(=O)(=O)Oc2c(C(C)C)cc(NC(=O)[C@@H](N)CCCCN)cc2C(C)C)c(C(C)C)c1 [Example 2, (S)-[(2,4,6-Triisopropyl-phenyl)-acetyl]-sulfamic acid 4-(2,6-diamino-hexanoylamino)-2,6-diisopropyl-phenyl ester dihydrochloride] | > 50 | – | -60 | – | –
CC(C)c1cc(C(C)C)c(CC(=O)NS(=O)(=O)Oc2c(C(C)C)cc(NC(=O)CNC(=O)OC(C)(C)C)cc2C(C)C)c(C(C)C)c1 [Example 3] | 18 | – | – | -40 | –
CC(C)c1cc(C(C)C)c(CC(=O)NS(=O)(=O)Oc2c(C(C)C)cc(NC(=O)CN)cc2C(C)C)c(C(C)C)c1 [Example 4, [(2,4,6-Triisopropyl-phenyl)-acetyl]-sulfamic acid 4-(2-amino-acetylamino)-2,6-diisopropyl-phenyl ester] | 48 | – | -65 | – | –
CSCCC(N)C(=O)Nc1cc(C(C)C)c(OS(=O)(=O)NC(=O)Cc2c(C(C)C)cc(C(C)C)cc2C(C)C)c(C(C)C)c1 (centres unmarked) [Example 6, [(2,4,6-Triisopropyl-phenyl)-acetyl]-sulfamic acid 4-(2-amino-4-methylsulfanyl-butyrylamino)-2,6-diisopropyl-phenyl ester trifluoroacetate] | 750 | – | -72 | – | –
CCOC(=O)CCNC(=O)Nc1cc(C(C)C)c(OS(=O)(=O)NC(=O)Cc2c(C(C)C)cc(C(C)C)cc2C(C)C)c(C(C)C)c1 [Example 7] | 49 | – | – | -30 | –
CC(C)c1cc(C(C)C)c(CC(=O)NS(=O)(=O)Oc2c(C(C)C)cc(NC(=O)NCCC(=O)O)cc2C(C)C)c(C(C)C)c1 [Example 8] | > 50 | – | -15 | – | –
CC(C)c1cc(C(C)C)c(CC(=O)NS(=O)(=O)Oc2c(C(C)C)cc(NC(=O)C(N)Cc3c[nH]c4ccccc34)cc2C(C)C)c(C(C)C)c1 (centres unmarked) [Example 9] | 24 | – | -25 | – | –
CC(C)c1cc(C(C)C)c(CC(=O)NS(=O)(=O)Oc2c(C(C)C)cc(NC(=O)CCCCN)cc2C(C)C)c(C(C)C)c1 [Example 10, [(2,4,6-Triisopropyl-phenyl)-acetyl]-sulfamic acid 4-(5-amino-pentanoylamino)-2,6-diisopropyl-phenyl ester trifluoroacetate(1:1) (salt)] | – | – | -15 | – | –
CC(C)c1cc(C(C)C)c(CC(=O)NS(=O)(=O)Oc2c(C(C)C)cc(NC(=O)[C@@H](C)N)cc2C(C)C)c(C(C)C)c1 [Example 11, (D)-[(2,4,6-Triisopropyl-phenyl)-acetyl]-sulfamic acid 4-(2-amino-propionylamino)-2,6-diisopropyl-phenyl ester trifluoroacetate(1:1) (salt)] | > 50 | – | -19 | – | –
CC(C)c1cc(C(C)C)c(CC(=O)NS(=O)(=O)Oc2c(C(C)C)cc(NC(=O)[C@H](C)N)cc2C(C)C)c(C(C)C)c1 [Example 12, (L)-[(2,4,6-Triisopropyl-phenyl)-acetyl]-sulfamic acid 4-(2-amino-propionylamino)-2,6-diisopropyl-phenyl ester] | > 50 | – | -74 | – | –
CC(C)c1cc(C(C)C)c(CC(=O)NS(=O)(=O)Oc2c(C(C)C)cc(NC(=O)C(C)(C)N)cc2C(C)C)c(C(C)C)c1 [Example 13, [(2,4,6-Triisopropyl-phenyl)-acetyl]-sulfamic acid 4-(2-amino-2-methyl-propionylamino)-2,6-diisopropyl-phenyl ester] | > 50 | – | -8 | – | –
CC(C)c1cc(C(C)C)c(CC(=O)NS(=O)(=O)Oc2c(C(C)C)cc(OCCCN(C)C)cc2C(C)C)c(C(C)C)c1 [Example 14, [(2,4,6-Triisopropyl-phenyl)-acetyl]-sulfamic acid 4-(3-dimethylamino-propoxy)-2,6-diisopropyl-phenyl ester] | > 50 | – | – | – | -11
CC(C)c1cc(C(C)C)c(CC(=O)NS(=O)(=O)Oc2c(C(C)C)cc(OCCCN(C)C)cc2C(C)C)c(C(C)C)c1.Cl [Example 15, [(2,4,6-Triisopropyl-phenyl)-acetyl]-sulfamic acid 4-(3-dimethylamino-propoxy)-2,6-diisopropyl-phenyl ester hydrochloride salt] | – | – | – | – | -26
CC(C)c1cc(C(C)C)c(CC(=O)NS(=O)(=O)Oc2c(C(C)C)cc(OCCCN)cc2C(C)C)c(C(C)C)c1 [Example 16, [(2,4,6-Triisopropyl-phenyl)-acetyl]-sulfamic acid 4-(3-amino-propoxy)-2,6-diisopropyl-phenyl ester hydrochloride salt] | > 50 | – | -47 | – | –
CC(C)c1cc(C(C)C)c(CC(=O)NS(=O)(=O)Oc2c(C(C)C)cc(SC#N)cc2C(C)C)c(C(C)C)c1 [Example 17, [(2,4,6-Triisopropyl-phenyl)-acetyl]-sulfamic acid 2,6-diisopropyl-4-thiocyanato-phenyl ester] | 29 | – | -46 | – | –
CC(C)c1cc(C(C)C)c(CC(=O)NS(=O)(=O)Oc2c(C(C)C)cc(C#N)cc2C(C)C)c(C(C)C)c1 [Example 18, [(2,4,6-Triisopropyl-phenyl)-acetyl]-sulfamic acid 4-cyano-2,6-diisopropyl-phenyl ester] | > 50 | – | -38 | – | –
CC(C)c1cc(C(C)C)c(CC(=O)NS(=O)(=O)Oc2c(C(C)C)cc(CNC(=O)CN)cc2C(C)C)c(C(C)C)c1 [Example 19, [(2,4,6-Triisopropyl-phenyl)-acetyl]-sulfamic acid 4-[(2-amino-acetylamino)-methyl]-2,6-diisopropyl-phenyl ester] | > 50 | – | -16 | – | –
CC(C)c1cc(C(C)C)c(CC(=O)NS(=O)(=O)Oc2c(C(C)C)cc(C=O)cc2C(C)C)c(C(C)C)c1 [Example 20, [(2,4,6-Triisopropyl-phenyl)-acetyl]-sulfamic acid 4-formyl-2,6-diisopropyl-phenyl ester] | 43.2 | – | -44 | – | –
CC(C)c1cc(C(C)C)c(CC(=O)NS(=O)(=O)Oc2c(C(C)C)cc(C=CC#N)cc2C(C)C)c(C(C)C)c1 [Example 21, [(2,4,6-Triisopropyl-phenyl)-acetyl]-sulfamic acid 4-(2-cyano-vinyl)-2,6-diisopropyl-phenyl ester] | 44.6 | – | -35 | – | –
CC(C)c1cc(C(C)C)c(CC(=O)NS(=O)(=O)Oc2c(C(C)C)cc(CNCc3ccccc3)cc2C(C)C)c(C(C)C)c1 [Example 22, [(2,4,6-Triisopropyl-phenyl)-acetyl]-sulfamic acid 4-(benzylamino-methyl)-2,6-diisopropyl-phenyl ester mono hydrochloride] | 22.8 | – | -18 | – | –
CC(C)c1cc(C(C)C)c(CC(=O)NS(=O)(=O)Oc2c(C(C)C)cc(CN3CCN(C)CC3)cc2C(C)C)c(C(C)C)c1 [Example 23, [(2,4,6-Triisopropyl-phenyl)-acetyl]-sulfamic acid 2,6-diisopropyl-4-(4-methyl-piperazin-1-ylmethyl)-phenyl ester, dihydrochloride] | 50 | – | 5 | – | –
CC(C)c1cc(C(C)C)c(CC(=O)NS(=O)(=O)Oc2c(C(C)C)cc(NCCO)cc2C(C)C)c(C(C)C)c1 [Example 27, [(2,4,6-Triisopropyl-phenyl)-acetyl]-sulfamic acid 4-(2-hydroxy-ethylamino)-2,6-diisopropyl-phenyl ester] | 43 | – | – | – | –
CC(C)c1cc(C(C)C)c(CC(=O)NS(=O)(=O)Oc2c(C(C)C)cc(S(N)(=O)=O)cc2C(C)C)c(C(C)C)c1 [Example 35, [(2,4,6-Triisopropyl-phenyl)-acetyl]-sulfamic acid 2,6-diisopropyl-4-sulfamoyl-phenyl ester] | 50 | – | – | – | –
